Experiment: Inhibition of PHA-stimulated IL2 secretion in human Jurkat T cells preincubated for 10 mins followed by PHA addition and measured after 20 to 24 hrs by ELISA

IC50	SMILES
150 nM	Cc1ccc(C2=NOC(C)(C)C2=O)cc1-c1cnc(C(=O)Nc2c(F)cccc2F)cn1 [US10292981, Example 121]
178 nM	Cc1ccc(C2=NOC(C)(C)C2=O)cc1-c1ccc(NC(=O)c2c(F)cccc2F)nc1 [US10292981, Example 4]
64 nM	Cc1ccc(-c2nn(C)c(=O)o2)cc1-c1cnc(NC(=O)c2c(F)cccc2F)cn1 [US10292981, Example 87]
328 nM	Cc1ccc(C2=NOC(C)(C)C2)cc1-c1cnc(NC(=O)c2c(F)cccc2F)cn1 [US10292981, Example 53]
69 nM	Cc1ccc(C2=NOC(C)(C)C2=O)cc1-c1ccc(NC(=O)c2c(F)cccc2F)cc1 [US10292981, Example 3]
78 nM	CCn1nc(-c2ccc(C)c(-c3ccc(NC(=O)c4c(F)cccc4F)cc3)c2)oc1=O [US10292981, Example 34]
34 nM	Cc1ccc(-c2nn(C)c(=O)o2)cc1-c1ccc(NC(=O)c2c(F)cccc2F)cc1 [US10292981, Example 33]
171 nM	Cc1ccc(C2=NOC(C)(C)C2=O)cc1-c1cnc(NC(=O)c2ccccc2Cl)cn1 [US10292981, Example 78]
94 nM	Cc1ccc(C2=NOC(C)(C)C2=O)cc1-c1cnc(NC(=O)c2c(F)cncc2F)cn1 [US10292981, Example 114]
65 nM	Cc1ccc(C2=NOC(C)(C)C2=O)cc1-c1cnc(NC(=O)c2c(F)cccc2Cl)cn1 [US10292981, Example 80]

— BindingDB's records for doi:10.1021/acs.jmedchem.1c01403 (Lupin, 2021)
